Data set [1] has as its system S. mutans. As to conditions: reported; cited from earlier work.
Data set [2] relates to S. mutans. The data set is described as follows: Reported MIC for S. mutans. The format is cell-based. As to conditions: Streptococcus mutans, conversion of the reported 0.125%.
Data set [3] in a line: Elution of CHX from CHX-HMP functionalised materials (UV spectrophotometry). The format is physicochemical. The protocol:
200 mL of the colloidal suspension was prepared using freshly-prepared reagents (to prevent hydrolysis of the HMP). The specimen was immersed in the rapidly stirred colloid for 30 s, then removed and immersed in deionised water for 10 s to rinse, and then blotted to remove excess liquid and allowed to dry in air.
8 specimens of each material coated with CHX-HMP-5 and CHX-HMP-0.5 nanoparticles were placed in individually labelled cuvettes suitable for ultraviolet spectrophotometry. Deionised water was added to the cuvettes and they were sealed tightly using cuvette lids. These were agitated on an orbital shaker rotating at 150 rpm. The cuvettes were kept sealed and were sampled for chlorhexidine concentration at intervals over a 60-90 day period. Control sets were prepared where the specimens were immersed in deionised water and where they were immersed in a 25 μM CHX solution, which is the concentration of aqueous CHX residual in the CHX-HMP-5 colloidal suspension.

For a further data set, the system named is P aeruginosa. The data set is described as follows: Growth of microorganisms on polyurethane specimens. As to conditions: 24 h incubation. Type of data set: cell-based, Pseudomonas aeruginosa. Also noted: key: −: complete inhibition; +: slight growth (growth observed at dilutions between 10^−1-10^−3); ++: moderate growth (growth observed at dilutions between 10^−4-10^−6); +++: high growth (growth at dilutions between 10^−7-10^−12). The text has this:
(§1) Extensive microbiology work has also been completed. […] Key: −complete inhibition; +slight growth (growth observed at dilutions between 10^−1-10^−3); ++ moderate growth (growth observed at dilutions between 10^−4-10^−6); +++ high growth (growth at dilutions between 10^−7-10^−12).

In the next data set the test system is MRSA. Kind of data set: Growth of microorganisms on polyurethane specimens. Type of data set: cell-based, Staphylococcus aureus. Also noted: key: −: complete inhibition; +: slight growth (growth observed at dilutions between 10^−1-10^−3); ++: moderate growth (growth observed at dilutions between 10^−4-10^−6); +++: high growth (growth at dilutions between 10^−7-10^−12). As to conditions: 24 h incubation in bacteria growth medium.
Excerpt: as §1

In a further data set the test system is K. pneumoniae. Kind of data set: Growth of microorganisms on polyurethane specimens. The format is cell-based, Klebsiella pneumoniae. Also noted: key: −: complete inhibition; +: slight growth (growth observed at dilutions between 10^−1-10^−3); ++: moderate growth (growth observed at dilutions between 10^−4-10^−6); +++: high growth (growth at dilutions between 10^−7-10^−12). The conditions noted are these: 24 h incubation.
Excerpt: as §1

The next data set has as its system E. coli. The data set is described as follows: Growth of microorganisms on polyurethane specimens. The format is cell-based, Escherichia coli. As to conditions: 24 h incubation. Also noted: key: −: complete inhibition; +: slight growth (growth observed at dilutions between 10^−1-10^−3); ++: moderate growth (growth observed at dilutions between 10^−4-10^−6); +++: high growth (growth at dilutions between 10^−7-10^−12).
Excerpt: as §1

A short description of data set [4]: Elution of CHX from functionalised borosilicate glass surfaces (UV spectrophotometry). As to conditions: coated glass coverslips in deionised water, 14-day period. The format is physicochemical. The protocol:
Chlorhexidine based salts were prepared by combining, at room temperature and under rapid stirring, 100 mL chlorhexidine (as the digluconate salt in aqueous solution at a concentration of 10 mM) and 100 mL of one of a range of anions in aqueous solution, also at an initial concentration of 10 mM, to effect final total concentrations of 5 mM of each. The precipitate was then allowed to adhere on borosilicate glass coverslips. Coverslips (Agar Scientific, Stansted, UK) were cleaned by 10 minutes ultrasonication in acetone followed by 10 minutes ultrasonication in industrial methylated spirits and allowed to air dry. They were immersed in the 200 mL suspension described above while it was rapidly stirred using a magnetic stirring plate. Coverslips were immersed for 30 seconds, removed, immersed in deionised water for 10 seconds to rinse, blotted to remove excess liquid and allowed to dry in air. The elution of soluble CHX from the functionalised glass surfaces was examined using ultraviolet spectrophotometry. 8 specimens of each type were placed in individually labelled cuvettes suitable for ultraviolet spectrophotometry. 2.5 mL deionised water was added to the cuvettes and they were sealed tightly using cuvette lids. These were agitated on an orbital shaker rotating at 150 rpm. […]

For data set [5] the following is noted: composite resins supplemented with pulverised CHX diacetate; cited from earlier work.
For another data set, the system named is MRSA bacteria. The data set is described as follows: Microbiology on EVA samples functionalised with CHX nanoparticles. The format is cell-based, Staphylococcus aureus. As to conditions: EVA specimens, 18 h incubation in 1 mL growth medium. On the procedure:
EVA specimens were functionalised by 30 s immersion in a colloidal suspension of CHX-HMP-5 in water followed by 10 s immersion in deionised water (“low concentration”) or without subsequent immersion in deionised water (“high concentration”). These samples were then exposed to cultures of MRSA bacteria. They were then immersed in 1 mL, growth medium and incubated for 18 h. According to the release experiments in this time the EVA specimen should release around 6 μM per m^2 material. Surface area of the specimen was 0.000182 m^2 so the expected total release should be […] CHX into 1 mL giving a resultant concentration of 1.1 μM CHX.

A further data set deals with P. aeruginosa biofilm. Kind of data set: Static biofilm model (crystal violet). The format is cell-based, Pseudomonas aeruginosa. As to conditions: P. aeruginosa 48 h static biofilm, 2 h treatment; word qualifies 'disruption'. On the procedure: (§2) Bacterial strains were initially grown for 16 h and these stationary phase cultures were harvested by centrifugation, and adjusted to OD650=0.1. Biofilms were grown in 50 μL appropriate media at 37° C. for 48 h, aerobically then the media was removed and discarded. Loosely adherent bacteria were removed by washing the biofilms twice with 100 μl PBS. Chlorhexidine or chlorhexidine nanoparticles diluted in PBS were added to the biofilms using a doubling dilution as described above (0-25 μM). The plates were incubated for 2 h at 37° C.; to estimate biomass, unattached cells were gently aspirated and discarded, and adherent cells were washed twice with PBS and stained with crystal violet (0.25% w/v) for 10 min; following a further two washes with PBS, cell-bound crystal violet was re-solubilized with 7% acetic acid, and absorbance measured at 595 nm (A595).

Data set [6] relates to Pseudomonas aeruginosa NCIMB 8626 (ATCC 9027). The data set is described as follows: Minimum inhibitory concentration, planktonic bacteria. The format is cell-based. As to conditions: P. aeruginosa, 16 h; value for CHX-HMP-5 is minimum tested. The protocol:
(§3) Methicillin-resistant Staphylococcus aureus (MRSA; NCTC13142) was cultured in Mueller-Hinton media. Pseudomonas aeruginosa NCIMB 8626 (ATCC 9027) was cultured in nutrient broth (NB) or nutrient agar (NA). All cultures were incubated at 37° C. aerobically throughout the study.
(§4) Cultures were incubated for 16 h at 37° C. in aerobic conditions, optical density (CD) readings were measured at 620 nm (A620) using a standard microtitre plate reader (SpectroStar Nano; BMG Labtech).

For data set [7], the system named is Methicillin-resistant Staphylococcus aureus (MRSA; NCTC13142). Described as above. Type of data set: cell-based. The conditions noted are these: 16 h, 37° C., OD 620 nm, listed as 25 μM chlorhexidine. On the procedure: as §3, §4
A further data set concerns MRSA biofilm. Kind of data set: Static biofilm model (crystal violet). The format is cell-based, Staphylococcus aureus. The conditions noted are these: MRSA 48 h static biofilm, 2 h treatment; word qualifies 'disruption'. On the procedure:
as §2

[8] abbreviates: result in words, 'Little or no' continues 'significant release'.

The structures appear in SMILES notation. Read-outs that look alike come from different tables or passages of the source.

For the molecule `N=C(NCCCCCCNC(=N)NC(=N)Nc1ccc(Cl)cc1)NC(=N)Nc1ccc(Cl)cc1` [CHX digluconate], the MIC with S. mutans [1] is 0.125 % by mass; in the data set with S. mutans [2], around 1400 µM.

In the case of `N=C(NCCCCCCNC(=N)NC(=N)Nc1ccc(Cl)cc1)NC(=N)Nc1ccc(Cl)cc1` [Comparative Example 5, chlorhexidine], the “CHX Release Period” value in [3] (functionalised material in deionised water, 60-90 day period) is listed as above 60 days.

With `N=C(NCCCCCCNC(=N)NC(=N)Nc1ccc(Cl)cc1)NC(=N)Nc1ccc(Cl)cc1` [Comparative Example 4, chlorhexidine], in data set [3] (setting [8]), the “CHX Release Period” value is recorded as “No release”.

For the molecule `N=C(NCCCCCCNC(=N)NC(=N)Nc1ccc(Cl)cc1)NC(=N)Nc1ccc(Cl)cc1` [Comparative Example 6, chlorhexidine], the “CHX Release Period” value in [3] (setting [8]) was “No release”.

For `N=C(NCCCCCCNC(=N)NC(=N)Nc1ccc(Cl)cc1)NC(=N)Nc1ccc(Cl)cc1` [80 μM CHX, chlorhexidine], the “growth of microorganisms on polyurethane specimens” value with P aeruginosa, in the data set on MRSA, in the data set on K. pneumoniae and in the data set on E. coli was “++” each time.

Consider `N=C(NCCCCCCNC(=N)NC(=N)Nc1ccc(Cl)cc1)NC(=N)Nc1ccc(Cl)cc1` [compound 2, chlorhexidine], for which the “CHX Release Period” value in [4] is 48 to 72 h.

In the case of `N=C(NCCCCCCNC(=N)NC(=N)Nc1ccc(Cl)cc1)NC(=N)Nc1ccc(Cl)cc1` [CHX diacetate], in data set [5], the “time to plateau of CHX release” value is “around 7 days”.

Turning to `N=C(NCCCCCCNC(=N)NC(=N)Nc1ccc(Cl)cc1)NC(=N)Nc1ccc(Cl)cc1` [Comparative Example 7, chlorhexidine], the “CHX Release Period” value in data set [3] (setting [8]) is given as “Little or no”.

For `N=C(NCCCCCCNC(=N)NC(=N)Nc1ccc(Cl)cc1)NC(=N)Nc1ccc(Cl)cc1` [compound 8, chlorhexidine], the “recovery of MRSA / efficacy against MRSA” value with MRSA bacteria is listed as “not efficacious”. The Effect on biofilm entry in the data set on P. aeruginosa biofilm is “P.a.: slight”; in the data set with MRSA biofilm, “MRSA: slight”. The figures for the “MIC, soluble CHX conc” value in data set [6] and in data set [7] were “P.a.: (25 μM)” and “not efficacious”, respectively.
